Measured values from US20240299484A1, “DILEUCINE COMPOSITIONS AND METHODS OF USE THEREOF” (Ingenious Ingredients, LP, priority 2023, published 2024).
Marks after values point to notes of the source that are not given here.

How the values were obtained:
Type in all cases: in vivo, Swiss Albino mice
total cholesterol (TC) = test: Blood lipids: total cholesterol; conditions: for TC / TC [mg/dl]: after 28 days of supplementation, mice, n = 8; for TC Change over control [%]: vs Exercise Control, 28 days
Method: (§1) Eight 8-week-old male Swiss Albino mice per experimental group were housed in an animal room at a constant temperature (22±3° C.) and humidity (30%-70%) under a 12:12 h light-dark cycle with standard laboratory diet (Purina 5L79, Rat and Mouse 18% protein; PMI Nutrition International, Brentwood, MO, USA). Distilled water was provided ad libitum. All animal experiments were reviewed and approved by the Institutional Animal Ethical Committee (IAEC) of Radiant Research Services Pvt. Ltd (Bangalore, India). All research was conducted in accordance with the guidelines of the committee for the purpose of control and supervision of experiments on animals (CPCSEA Registration Number-1803/PO/RcBi/S/2015/CPCSEA).
(§2) After one week of acclimation, the animals were randomly divided by body weight into different groups (n=8 per group in each test) for oral treatment once a day, at approximately same time each day (+1 hour), for 28 consecutive days: (1) vehicle control; (2) paraxanthine (3) dileucine; (4) paraxanthine+dileucine; (5) L-arginine; (6) L-arginine+dileucine; (7) L-citrulline; and (8) L-citrulline+dileucine. The dose administered to the mice was calculated using US Food and Drug Administration for human equivalence doses (HED), assuming a human weight of 60 kg. The following HED were used in this study: 2,000 mg dileucine (RAMPS™, Ingenious Ingredients, L.P., Lewisville, TX, USA; mouse 411 mg/kg bw), 100 mg paraxanthine, (ENFINITY™, Ingenious Ingredients, L.P Lewisville, TX, USA; mouse dose: 20.5 mg/kg bw/day); 3,000 mg L-arginine (Nanjing Nutrabuilding Bio-tech Co., LTD., No. 270 Jiqingmen Strect, Suning Huigu, Building E6, Room 2105, Nanjing, China 210017; mouse 616.55 mg/kg bw), 3,000 mg L-citrulline (Nanjing Nutrabuilding Bio-tech Co., LTD., No. 270 Jiqingmen Street, Suning Huigu, Building E6, Room 2105, Nanjing, China 210017; mouse 616.55 mg/kg bw). 0.5% Carboxy Methyl Cellulose sodium was used as vehicle and the test item formulations were prepared daily. Dosing was conducted via oral gavage using disposable polypropylene syringes with sterilized stainless steel gavage tubes. The food intake and water consumption were monitored daily, and BW was recorded weekly. The last dose on day 28 was given 1 hour prior to testing.
(§3) All animals were euthanized by 95% CO2 after 28 days of following their assigned treatment. Blood was collected immediately after euthanization by the retro-orbital route and was immediately centrifuged at 1500×g for 10 min at 4° C. before having all serum transferred into cryogenic tubes and stored at −80° C.
(§4) Serum and plasma samples were separated by centrifuging the blood at 8000 rpm for 10 mins and analyze the below mentioned biomarkers, Biomarkers: TC, TG, LDL and HDL, CRP, Serum lactate, Ammonia, Glucose, NO, IL-2, IL-6, IL-10. Blood was collected in EDTA tubes for below mentioned biomarkers, Immune health Biomarkers (T helper subsets): TH1, TH2, TH17, Tfh, iTreg.

[1] = Forelimb grip strength test; conditions: for Forelimb grip strength (gf) Day −0: Day −0 (baseline), mice, n = 8; for Forelimb grip strength (gf) Day −28: Day −28, one hour after treatment, oral once a day for 28 days; for Increase strength over Day −0: Day −28 minus Day −0; for Percentage Increase over control (grip strength): increase vs Exercise Control, 28 days
Method: as §1, §2
The forelimb grip strength was measured on day 0 and day 28 by using a stainless-steel grill to assess muscle strength (Orchid Scientific & Innovative India Pvt Ltd, India). Grip strength was measured one hour after treatment. Briefly, each mouse was placed on a grill chamber and the steel bar is inverted; grip strength is measured by recording the time each animal holds the steel bar. The maximum time for each trial was six minutes. Each animal performed three independent trials separated by six minutes intervals and the mean of the three trials was calculated.

[2] = Treadmill exercise / endurance test; set-up: Percentage Increase over control (number of shocks) / Percentage Increase over control (time on shock zone) / Percentage Increase over control (distance travelled): concentration or dose not given beside the values; conditions: for Distance travelled (m) by mice during treadmill exercise Day −0 / No. of shocks during treadmill exercise Day −0 / Time spent on shock zone during excercise [sec] Day −0: Day −0 (baseline), n = 8, mice; for No. of shocks during treadmill exercise Day −28 / Time spent on shock zone during excercise [sec] Day −28: Day −28, oral once a day for 28 days; for Distance travelled (m) by mice during treadmill exercise Day −28: Day −28, until exhaustion, oral once a day for 28 days; for Distance Increase over Day −0 / No of Shocks Decrease over Day −0 / Time spent on shock zone over Day −0: Day −28 minus Day −0; for Percentage Increase over control (time on shock zone): change vs Exercise Control; for Percentage Increase over control (time on shock zone) / Percentage Increase over control (number of shocks) / Percentage Increase over control (distance travelled): 28 days; for Percentage Increase over control (number of shocks): decrease in shocks vs Exercise Control; for Percentage Increase over control (distance travelled): increase vs Exercise Control
Method: as §1, §2
During the treatment period, exercise training was completed using a motorized treadmill (Exer 3/6, Columbus Instruments international, OH, USA) at a moderate intensity of 20 cm/sec as maximal running speed, an incline of ten degrees and a shock intensity of 0.2 mA, for ten minutes. The speed of the treadmill was manually adjusted by increasing the belt speed by 5 cm/sec every two minutes throughout the total duration of ten minutes. All animals were adapted to this procedure daily 60 minutes after dosing for five days in a week during the treatment period.
On 28th day of each respective treatment, all animals were subjected to a muscle endurance test. Muscle endurance was accomplished on a motorized treadmill at a low to moderate intensity of 5-50 cm/sec as maximal running speed, an incline of ten degrees and a shock intensity of 0.2 mA, with the belt speed being increased by 5 cm/sec every two minutes until it reaches 50 cm/sec. Animals were subjected to the treadmill test until exhaustion. Distance traveled (m) was measured as a marker of exercise performance.

triglycerides (TG) = test: Blood lipids: triglycerides; conditions: for TG: after 28 days of supplementation, mice, n = 8; for TG Change over control [%]: vs Exercise Control, 28 days
Method: as §1, §2, §3, §4

IL-2 = test: Inflammatory markers: IL-2; conditions: for IL-2 Change over control [%]: vs Exercise Control, 28 days
Method: as §1, §2, §3, §4

IL-6 = test: Inflammatory markers: IL-6; conditions: for IL-6 Change over control [%]: vs Exercise Control, 28 days
Method: as §1, §2, §3, §4

[3] = after 28 days of supplementation and exercise, mice, n = 8

SMILES: N=C(N)NCCC[C@H](N)C(=O)O [L-Arginine, L-arginine]
- TC (total cholesterol (TC)): 95.43 mg/dL
- TC Change over control [%] (total cholesterol (TC)): −5%
- Forelimb grip strength (gf) Day −0 [1]: 99.75 gf
- Forelimb grip strength (gf) Day −28 [1]: 139.13*** gf
- Increase strength over Day −0 [1]: 39.38 gf
- Percentage Increase over control (grip strength) [1]: 39%
- Distance travelled (m) by mice during treadmill exercise Day −0 [2]: 39.13 m
- No. of shocks during treadmill exercise Day −0 [2]: 30.38
- Time spent on shock zone during excercise [sec] Day −0 [2]: 90 s
- No. of shocks during treadmill exercise Day −28 [2]: 16.75***
- Time spent on shock zone during excercise [sec] Day −28 [2]: 35.13*** sec
- Distance travelled (m) by mice during treadmill exercise Day −28 [2]: 314.25*** m
- Distance Increase over Day −0 [2]: 275.12 m
- No of Shocks Decrease over Day −0 [2]: −13.63
- Time spent on shock zone over Day −0 [2]: -54.87 s
- Percentage Increase over control (time on shock zone) [2]: 80%
- Percentage Increase over control (number of shocks) [2]: 73%
- Percentage Increase over control (distance travelled) [2]: 98%
- TG (triglycerides (TG)): 94.1 mg/dL
- TG Change over control [%] (triglycerides (TG)): −2%
- IL-2 (ng/L) (IL-2; [3]): 42.04*** ng/L
- IL-2 Change over control [%] (IL-2): 23%
- IL-6 (pg/ml) (IL-6; [3]): 351.39** pg/ml
- IL-6 Change over control [%] (IL-6): −7%

SMILES: NC(=O)NCCC[C@H](N)C(=O)O [L-Citrulline, L-citrulline]
- TC [mg/dl] (total cholesterol (TC)): 94.26* mg/dl
- TC Change over control [%] (total cholesterol (TC)): −6%
- Forelimb grip strength (gf) Day −0 [1]: 97.63 gf
- Forelimb grip strength (gf) Day −28 [1]: 138.5*** gf
- Increase strength over Day −0 [1]: 40.87 gf
- Percentage Increase over control (grip strength) [1]: 45%
- Distance travelled (m) by mice during treadmill exercise Day −0 [2]: 38.5 m
- No. of shocks during treadmill exercise Day −0 [2]: 28.63
- Time spent on shock zone during excercise [sec] Day −0 [2]: 90.88 s
- No. of shocks during treadmill exercise Day −28 [2]: 17.00***
- Time spent on shock zone during excercise [sec] Day −28 [2]: 36.63*** sec
- Distance travelled (m) by mice during treadmill exercise Day −28 [2]: 312*** m
- Distance Increase over Day −0 [2]: 273.5 m
- No of Shocks Decrease over Day −0 [2]: −11.63
- Time spent on shock zone over Day −0 [2]: -54.25 s
- Percentage Increase over control (time on shock zone) [2]: 78%
- Percentage Increase over control (number of shocks) [2]: 48%
- Percentage Increase over control (distance travelled) [2]: 97%
- TG (triglycerides (TG)): 94.58 mg/dL
- TG Change over control [%] (triglycerides (TG)): −2%
- IL-2 (ng/L) (IL-2; [3]): 42.8*** ng/L
- IL-2 Change over control [%] (IL-2): 25%
- IL-6 (IL-6; [3]): 349.52 pg/mL
- IL-6 Change over control [%] (IL-6): −7%

SMILES: Cn1c(=O)[nH]c2ncn(C)c2c1=O [Paraxanthine, 1,7-dimethylxanthine]
- TC [mg/dl] (total cholesterol (TC)): 91.66** mg/dl
- TC Change over control [%] (total cholesterol (TC)): −8%
- Forelimb grip strength (gf) Day −0 [1]: 98.38 gf
- Forelimb grip strength (gf) Day −28 [1]: 148.88*** gf
- Increase strength over Day −0 [1]: 50.5 gf
- Percentage Increase over control (grip strength) [1]: 79%
- Distance travelled (m) by mice during treadmill exercise Day −0 [2]: 41.13 m
- No. of shocks during treadmill exercise Day −0 [2]: 26.5
- Time spent on shock zone during excercise [sec] Day −0 [2]: 90.75 s
- No. of shocks during treadmill exercise Day −28 [2]: 13.38***
- Time spent on shock zone during excercise [sec] Day −28 [2]: 32.25*** sec
- Distance travelled (m) by mice during treadmill exercise Day −28 [2]: 325.75*** m
- Distance Increase over Day −0 [2]: 284.62 m
- No of Shocks Decrease over Day −0 [2]: −13.12
- Time spent on shock zone over Day −0 [2]: -58.5 s
- Percentage Increase over control (time on shock zone) [2]: 92%
- Percentage Increase over control (number of shocks) [2]: 67%
- Percentage Increase over control (distance travelled) [2]: 105%
- TG (triglycerides (TG)): 91.94 mg/dL
- TG Change over control [%] (triglycerides (TG)): −4%
- IL-2 (IL-2; [3]): 45.91 ng/L
- IL-2 Change over control [%] (IL-2): 23%
- IL-6 (pg/ml) (IL-6; [3]): 340.6** pg/ml
- IL-6 Change over control [%] (IL-6): −8%

SMILES: CC(C)C[C@H](NC(=O)[C@@H](N)CC(C)C)C(=O)O [Dileucine, L-Leucyl-L-leucine]
- TC (total cholesterol (TC)): 93.3 mg/dL
- TC Change over control [%] (total cholesterol (TC)): −6%
- Forelimb grip strength (gf) Day −0 [1]: 99.25 gf
- Forelimb grip strength (gf) Day −28 [1]: 149.0*** gf
- Increase strength over Day −0 [1]: 49.75 gf
- Percentage Increase over control (grip strength) [1]: 76%
- Distance travelled (m) by mice during treadmill exercise Day −0 [2]: 38.88 m
- No. of shocks during treadmill exercise Day −0 [2]: 27.63
- Time spent on shock zone during excercise [sec] Day −0 [2]: 91 s
- No. of shocks during treadmill exercise Day −28 [2]: 13***
- Time spent on shock zone during excercise [sec] Day −28 [2]: 31.88*** sec
- Distance travelled (m) by mice during treadmill exercise Day −28 [2]: 328.5*** m
- Distance Increase over Day −0 [2]: 289.62 m
- No of Shocks Decrease over Day −0 [2]: −14.63
- Time spent on shock zone over Day −0 [2]: -59.12 s
- Percentage Increase over control (time on shock zone) [2]: 94%
- Percentage Increase over control (number of shocks) [2]: 86%
- Percentage Increase over control (distance travelled) [2]: 109%
- TG (triglycerides (TG)): 92.66 mg/dL
- TG Change over control [%] (triglycerides (TG)): −3%
- IL-2 (ng/L) (IL-2; [3]): 46.4*** ng/L
- IL-2 Change over control [%] (IL-2): 24%
- IL-6 (pg/ml) (IL-6; [3]): 343** pg/ml
- IL-6 Change over control [%] (IL-6): −7%
